US20250320209A1, “Salts and Solid Forms of Sonrotoclax Intermediate” (BeOne Medicines I GmbH, priority 2022, published 2025)

What was measured:
[1] = Salt formation of Compound 2 with seven acids in seven organic solvents: physical form obtained; assay type: physicochemical; details: for physical form of the obtained salt: in certain organic solvents (summary of Table 1); for physical form of Compound 2 salt: 10 mL, acid 1.73 mmol
Method: In one example, Compound 2 (1.0 g, 1.73 mmol) in MTBE (10 mL) solution and oxalic acid (0.16 g, 1.73 mmol) was added dropwise. The reaction mixture was stirred for about 6 hours and filtered to obtain a wet cake of methyl 4-(2-{(2S)-2-[2-(propan-2-yl)phenyl]pyrrolidin-1-yl}-7-azaspiro[3.5]nonan-7-yl)-2-[(1H-pyrrolo[2,3-b]pyridin-5-yl)oxy]benzoate oxalate salt (Compound 3).
The other acids were used as the following amounts, D-(−)-tartaric (0.26 g, 1.73 mmol), p-toluenesulfonic acid (0.3 g, 1.73 mmol), D-DTTA (0.67 g, 1.73 mmol), Citric acid (0.33 g, 1.73 mmol), Malic acid (0.23 g, 1.73 mmol), Maleic acid (0.20 g, 1.73 mmol); and the other organic solvents were used with 10 mL volume.

[2] = Properties of the solid oxalate salt of Compound 2 as stated in text

| Molecule | physical form of the obtained salt [1] | physical form of Compound 2 salt ([1]; solvent 2-MeTHF) | physical form of Compound 2 salt ([1]; solvent Acetone) | physical form of Compound 2 salt ([1]; solvent DCM) | physical form of Compound 2 salt ([1]; solvent EA) | physical form of Compound 2 salt ([1]; solvent IPAc) | physical form of Compound 2 salt ([1]; solvent MTBE) | physical form of Compound 2 salt ([1]; solvent MeOH) | hydroscopic property ([2]; solid (wet cake) obtained from MTBE) | stability ([2]; solid salt, no test described) |
| --- | --- | --- | --- | --- | --- | --- | --- | --- | --- | --- |
| COC(=O)c1ccc(N2CCC3(CC2)CC(N2CCC[C@H]2c2ccccc2C(C)C)C3)cc1Oc1cnc2[nH]ccc2c1.O=C(O)C(=O)O [Compound 3, methyl 4-(2-{(2S)-2-[2-(propan-2-yl)phenyl]pyrrolidin-1-yl}-7-azaspiro[3.5]nonan-7-yl)-2-[(1H-pyrrolo[2,3-b]pyridin-5-yl)oxy]benzoate oxalate salt] | solid form | oil | Clean solution | Clean solution | oil | moisture | Fine solid | Clean solution | low | very good |
| Cc1ccc(C(=O)O[C@H](C(=O)O)[C@H](OC(=O)c2ccc(C)cc2)C(=O)O)cc1 [D-DTTA] | solid form | Clean solution | Clean solution | Clean solution | Clean solution | oil | Fine solid | Clean solution |  |  |
| Cc1ccc(S(=O)(=O)O)cc1 [p-toluenesulfonic acid] |  | Clean solution | Clean solution | Clean solution | Clean solution | Clean solution | moisture absorption | Clean solution |  |  |
| Citric acid |  | oil | Clean | Clean | oil | moisture | moisture | Clean |  |  |
| Maleic acid |  | Clean solution | Clean solution | Clean solution | Clean solution | oil | moisture | Clean solution |  |  |
| Malic acid |  | Clean solution | Clean solution | Clean solution | oil | oil | moisture | Clean solution |  |  |
